Results as given in PMC7470033, “In vitro inhibitory effect of lysionotin on the activity of cytochrome P450 enzymes” (Pharmaceutical Biology, 2020).

Columns and labels:
[1] = biological target: T1, CYP2C8 (Homo sapiens, UniProt P10632); assay: CYP2C8 inhibition in pooled human liver microsomes (paclitaxel 6α-hydroxylation); type: in vitro ADME; details: for inhibition model of CYP2C8: Lineweaver-Burk plots
T1 construct: Pooled HLMs were purchased from BD Biosciences Discovery Labware; tissue BD Biosciences Discovery Labware; host or cells: pooled human liver microsomes
T1 sequence (P10632 1-490): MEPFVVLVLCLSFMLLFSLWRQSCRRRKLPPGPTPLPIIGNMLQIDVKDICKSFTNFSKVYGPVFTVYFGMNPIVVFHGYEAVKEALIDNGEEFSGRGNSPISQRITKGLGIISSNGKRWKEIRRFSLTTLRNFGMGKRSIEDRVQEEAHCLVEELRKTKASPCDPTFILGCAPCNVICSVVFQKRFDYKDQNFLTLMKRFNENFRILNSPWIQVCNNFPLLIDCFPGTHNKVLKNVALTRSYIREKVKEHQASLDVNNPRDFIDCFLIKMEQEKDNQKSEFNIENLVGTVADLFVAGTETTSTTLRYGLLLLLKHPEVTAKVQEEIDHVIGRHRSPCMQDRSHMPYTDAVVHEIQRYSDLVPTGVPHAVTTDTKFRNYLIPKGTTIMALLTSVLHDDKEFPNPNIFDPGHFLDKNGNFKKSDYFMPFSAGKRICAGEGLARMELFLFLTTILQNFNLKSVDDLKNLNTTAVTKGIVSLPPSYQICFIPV
Protocol: (§1) In this study, lysionotin was incubated with eight CYP isoforms (i.e., 1A2, 3A4, 2A6, 2E1, 2D6, 2C9, 2C19 and 2C8) in pooled human liver microsomes to investigate the interaction between lysionotin and CYPs, which can provide direct evidence for the effect of lysionotin on the activity of CYPs. In vitro, phenacetin (CYP1A2), testosterone (CYP3A4), coumarin (CYP2A6), chlorzoxazone (CYP2E1), dextromethorphan (CYP2D6), diclofenac (CYP2C9), S-mephenytoin (CYP2C19) and paclitaxel (CYP2C8) were used as probe substrates to determine the effects of lysionotin on eight CYP enzymes. In addition, enzyme kinetic studies were conducted to determine the inhibition model of lysionotin on CYP enzymes.
(§2) All incubations were performed in triplicate, and the mean values were utilised. The typical incubation systems contained 100 mM potassium phosphate buffer (pH 7.4), NADPH generating system (1 mM NADP^+, 10 mM glucose-6-phosphate, 1 U/mL of glucose-6-phosphate dehydrogenase, and 4 mM MgCl2), the appropriate concentration of HLMs, a corresponding probe substrate and lysionotin (or positive inhibitor for different probe reactions) in a final volume of 200 μL.
The concentration of lysionotin was 100 μM, and the positive inhibitor concentrations were as follows: 10 μM furafylline for CYP1A2, 1 μM ketoconazole for CYP3A4, 10 μM tranylcypromine for CYP2A6, 50 μM clomethiazole for CYP2E1, 10 μM quinidine for CYP2D6, 10 μM sulfaphenazole for CYP2C9, 50 μM tranylcypromine for CYP2C19, 5 μM montelukast for CYP2C8. Probe substrates, positive inhibitors (except for dextromethorphan and quinidine, which were dissolved in water), and lysionotin were dissolved in methanol, with a final concentration of 1% (v/v), and 1% neat methanol was added to the incubations without inhibitor. There was a 3 min preincubation period (at 37 °C) before the reaction was initiated by adding an NADPH-generating system. The reaction was terminated by adding a 100 μL acetonitrile (10% trichloroacetic acid for CYP2A6) internal standard mix, and the solution was placed on ice. The mixture was centrifuged at 12,000 rpm for 10 min, and an aliquot (50 μL) of supernatant was transferred for HPLC analysis. The instrument used in this study was Agilent 1260 series instrument with DAD and FLD detector, and the quantitative assay for the corresponding metabolites was performed as previously reported and the detection conditions are summarised in Table 2 (He et al. [2015]; Lang et al. [2017]; Zhang et al. [2017]). […]
(§3) The enzyme kinetic parameters for the probe reaction were estimated from the best fit line, using least-squares linear regression of the inverse substrate concentration versus the inverse velocity (Lineweaver-Burk plots), and the mean values were used to calculate Vmax and Km. Inhibition data from the experiments that were conducted using multiple compound concentrations were represented by Dixon plots, and inhibition constant (Ki) values were calculated using non-linear regression according to the following equation: v=(VmaxS)/(Km(1+I/Ki+S)for competitive inhibition v=(VmaxS)/[(Km+S((1+I/Ki)] for non-competitive inhibition where I is the concentration of the compound, Ki is the inhibition constant, S is the concentration of the substrate, and Km is the substrate concentration at half the maximum velocity (Vmax) of the reaction. The mechanism of the inhibition was inspected using the Lineweaver-Burk plots and the enzyme inhibition models. […]

[2] = set-up: method as in Liu et al. [2013]; details: oral administration of 50 mg/kg, ref Liu et al. [2013]; cited from earlier work
[3] = biological target: T2, CYP3A4 (Homo sapiens, UniProt P08684); assay: CYP3A4 inhibition in pooled human liver microsomes (testosterone 6β-hydroxylation); type: in vitro ADME
T2 construct: Pooled HLMs were purchased from BD Biosciences Discovery Labware; tissue BD Biosciences Discovery Labware; host or cells: pooled human liver microsomes
Protocol: as §1, §2
(§4) The concentration of lysionotin was 100 μM, and the positive inhibitor concentrations were as follows: 10 μM furafylline for CYP1A2, 1 μM ketoconazole for CYP3A4, 10 μM tranylcypromine for CYP2A6, 50 μM clomethiazole for CYP2E1, 10 μM quinidine for CYP2D6, 10 μM sulfaphenazole for CYP2C9, 50 μM tranylcypromine for CYP2C19, 5 μM montelukast for CYP2C8. […] The instrument used in this study was Agilent 1260 series instrument with DAD and FLD detector, and the quantitative assay for the corresponding metabolites was performed as previously reported and the detection conditions are summarised in Table 2 (He et al. [2015]; Lang et al. [2017]; Zhang et al. [2017]). […]
as §3

[4] = biological target: T3, CYP2C19 (Homo sapiens, UniProt P33261); assay: Time-dependent inhibition study of CYP2C19 in HLMs; type: in vitro ADME; details: 20 μM lysionotin, 0–30 min
T3 construct: Pooled HLMs were purchased from BD Biosciences Discovery Labware; tissue BD Biosciences Discovery Labware; host or cells: pooled human liver microsomes
Protocol: (§5) To determine whether lysionotin could inhibit the activity of CYP3A4, 2C19, and 2C8 in a time-dependent manner, lysionotin (20 μM) was pre-incubated with HLMs (1 mg/mL) in the presence of an NADPH-generating system for 30 min at 37 °C. After incubation, an aliquot (20 μL) was transferred to another incubation tube (final volume 200 μL) containing an NADPH-generating system and probe substrates whose final concentrations were approximate to Km. Then, further incubations were performed to measure the residual activity. After being incubated for 0, 5, 10, 15, and 30 min, the reactions were terminated by adding a 100 μL acetonitrile internal standard mix and then placed on ice; the corresponding metabolites were determined by HPLC.

[5] = biological target: T4, CYP2D6 (Homo sapiens, UniProt P10635); assay: CYP2D6 inhibition in pooled human liver microsomes (dextromethorphan O-demethylation); type: in vitro ADME; details: 100 μM lysionotin, pooled HLMs, p > 0.05
T4 construct: Pooled HLMs were purchased from BD Biosciences Discovery Labware; tissue BD Biosciences Discovery Labware; host or cells: pooled human liver microsomes
Protocol: In this study, lysionotin was incubated with eight CYP isoforms (i.e., 1A2, 3A4, 2A6, 2E1, 2D6, 2C9, 2C19 and 2C8) in pooled human liver microsomes to investigate the interaction between lysionotin and CYPs, which can provide direct evidence for the effect of lysionotin on the activity of CYPs. In vitro, phenacetin (CYP1A2), testosterone (CYP3A4), coumarin (CYP2A6), chlorzoxazone (CYP2E1), dextromethorphan (CYP2D6), diclofenac (CYP2C9), S-mephenytoin (CYP2C19) and paclitaxel (CYP2C8) were used as probe substrates to determine the effects of lysionotin on eight CYP enzymes. In addition, enzyme kinetic studies were conducted to determine the inhibition model of lysionotin on CYP enzymes. […]
as §4

[6] = biological target: T1, CYP2C8; assay: Time-dependent inhibition study of CYP2C8 in HLMs; type: in vitro ADME; details: 20 μM lysionotin, 0–30 min
Protocol: as §5

T2 sequence (P08684 whole entry): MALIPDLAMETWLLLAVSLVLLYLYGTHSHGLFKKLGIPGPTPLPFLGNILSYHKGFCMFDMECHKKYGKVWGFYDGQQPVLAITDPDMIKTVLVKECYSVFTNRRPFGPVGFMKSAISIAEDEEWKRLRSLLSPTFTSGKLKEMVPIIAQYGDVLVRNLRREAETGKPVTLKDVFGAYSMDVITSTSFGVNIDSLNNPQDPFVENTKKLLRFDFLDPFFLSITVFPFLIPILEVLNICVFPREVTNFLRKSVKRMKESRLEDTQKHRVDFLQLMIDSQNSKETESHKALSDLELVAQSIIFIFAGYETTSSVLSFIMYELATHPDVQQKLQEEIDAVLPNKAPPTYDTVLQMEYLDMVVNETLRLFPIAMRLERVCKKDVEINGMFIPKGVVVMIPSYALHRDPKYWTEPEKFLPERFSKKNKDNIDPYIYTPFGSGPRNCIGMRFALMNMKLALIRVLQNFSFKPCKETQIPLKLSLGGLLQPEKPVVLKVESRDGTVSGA
T4 sequence (P10635 whole entry): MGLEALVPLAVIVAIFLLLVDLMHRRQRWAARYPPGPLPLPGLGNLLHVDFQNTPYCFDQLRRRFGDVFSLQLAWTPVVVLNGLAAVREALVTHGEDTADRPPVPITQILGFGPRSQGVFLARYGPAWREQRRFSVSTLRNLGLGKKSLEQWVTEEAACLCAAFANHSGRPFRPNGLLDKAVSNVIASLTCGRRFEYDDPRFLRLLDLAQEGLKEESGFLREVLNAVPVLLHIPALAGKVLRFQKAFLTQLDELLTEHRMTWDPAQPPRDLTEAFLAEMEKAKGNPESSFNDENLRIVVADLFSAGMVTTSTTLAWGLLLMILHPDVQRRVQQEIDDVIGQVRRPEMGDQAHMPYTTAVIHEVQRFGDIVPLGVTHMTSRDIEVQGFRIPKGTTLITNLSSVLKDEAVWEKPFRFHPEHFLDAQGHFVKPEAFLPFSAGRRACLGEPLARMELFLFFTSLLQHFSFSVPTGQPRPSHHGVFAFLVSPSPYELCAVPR
T3 sequence (P33261 whole entry): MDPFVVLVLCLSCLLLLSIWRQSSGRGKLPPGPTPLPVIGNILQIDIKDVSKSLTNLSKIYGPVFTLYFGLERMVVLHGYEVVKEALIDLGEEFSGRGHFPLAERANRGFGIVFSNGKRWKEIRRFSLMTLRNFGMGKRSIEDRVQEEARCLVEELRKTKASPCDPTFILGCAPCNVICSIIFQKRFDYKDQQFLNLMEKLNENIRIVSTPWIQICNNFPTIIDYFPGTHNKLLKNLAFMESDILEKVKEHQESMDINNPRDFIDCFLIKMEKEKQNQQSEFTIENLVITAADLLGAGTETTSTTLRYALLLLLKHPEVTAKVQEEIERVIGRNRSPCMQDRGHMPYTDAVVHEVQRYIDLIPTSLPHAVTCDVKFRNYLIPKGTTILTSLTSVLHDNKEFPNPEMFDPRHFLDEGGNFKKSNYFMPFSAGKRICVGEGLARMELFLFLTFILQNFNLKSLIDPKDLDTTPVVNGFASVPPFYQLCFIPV

- activity of CYP2C8 decreased by ([1]; 100 μM lysionotin, pooled HLMs): 67.22%
- inhibition model of CYP2C8 [1]: competitively
- inhibition model of CYP2C8 ([1]; listed as Lysionotin): competitive
- Ki ([1]; competitive model, paclitaxel 5–20 μM, lysionotin 0–50 μM, pooled HLM): 14.5 µM
- IC50 ([1]; pooled HLMs, paclitaxel 6α-hydroxylation): 30 µM
- activity of CYP3A4 decreased by ([3]; 100 μM lysionotin, pooled HLMs): 86.33%
- inhibition model of CYP3A4 ([3]; Lineweaver-Burk plots): non-competitive
- Ki ([3]; non-competitive model, testosterone 20–100 μM, pooled HLM): 6.83 µM
- IC50 ([3]; pooled HLMs, testosterone 6β-hydroxylation): 13.8 µM
- effect of incubation time on the inhibition of CYP2C19 [4]: relatively stable
- effect on the activity of CYP2D6 [5]: not affected
- effect of incubation time on the inhibition of CYP2C8 [6]: relatively stable
SMILES: COc1ccc(-c2cc(=O)c3c(O)c(OC)c(O)c(OC)c3o2)cc1 [lysionotin, Lysionotin]
- Cmax in rat plasma [2]: 58.4 ± 10.3 ng/mL
